Among the test systems are SNB-19 CNS; MDA-MB-435; SF-539 CNS; HT29 colon; NCI-H226 lung; HCT-15 colon; MDA-N; SK-MEL-5 melanoma; SR leukemia; NCI-H522 lung.
What all share (experiment): DTP human tumour cell line panel, 48 h

TGI and GI50 data for 14 molecules are collected here from PubChem BioAssay (NCI).

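Assay format: 96-well plates, 48-hour exposure. Abbreviation: GI50, concentration required for 50% inhibition of growth. Definition used: TGI = concentration required for complete inhibition of growth.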 Bounds are passed on as bounds.

As to `Cc1ccc(C(=O)N/N=C(\N=Nc2ccc(C(=O)O)cc2)c2ccc(N(CCC#N)CCC#N)cc2C)cc1`, the TGI with SNB-19 CNS, in the experiment on MDA-MB-435, in the experiment on SF-539 CNS, in the experiment on HT29 colon, in the experiment with NCI-H226 lung and in the experiment with HCT-15 colon was above 100 µM each time. Further, the TGI in the experiment on MDA-N, in the experiment with SK-MEL-5 melanoma and in the experiment with SR leukemia was above 100 µM in each case.
As to `Cc1cc(S(=O)(=O)/N=C(\[N-]S(=O)(=O)c2cc(Cl)sc2Cl)[n+]2ccc(N(C)C)cc2)c(S)cc1Cl`, the total growth inhibition concentration (TGI) in the experiment on MDA-MB-435 was above 100 µM; in the experiment on SF-539 CNS, above 100 µM; with HT29 colon, above 100 µM; in the experiment with NCI-H226 lung, above 100 µM; with HCT-15 colon it was above 100 µM; in the experiment on NCI-H522 lung, 86.1 µM. In addition, the figures for the TGI in the experiment on MDA-N, in the experiment on SK-MEL-5 melanoma and with SR leukemia were above 100 µM, above 100 µM and 98.2 µM, respectively.
`Cc1nc2sccn2c1/C=C1/C(=O)Nc2cccc(Cl)c21`: the TGI with SNB-19 CNS was above 100 µM; in the experiment on MDA-MB-435, 39.3 µM; in the experiment with SF-539 CNS, above 100 µM; in the experiment with HT29 colon it was above 100 µM; in the experiment on HCT-15 colon, above 100 µM; in the experiment with NCI-H522 lung it was above 100 µM. Further, the values for the TGI in the experiment on MDA-N, with SK-MEL-5 melanoma and in the experiment on SR leukemia were 38.1 µM, above 100 µM and above 100 µM, respectively.
For `COc1cc(OC)c2[nH]c3c(O)c(-c4c(C)cc5c([nH]c6c(OC)cc(OC)cc65)c4O)c(C)cc3c2c1`, the GI50 with MDA-MB-435 is 12 µM; in the experiment on HT29 colon, 8.03 µM; in the experiment with HCT-15 colon it was 8.28 µM; in the experiment on MDA-N it was 8.83 µM; in the experiment with SK-MEL-5 melanoma, 8.38 µM; with SR leukemia, 9.01 µM. The TGI in the experiment with MDA-MB-435 came to 24.9 µM; in the experiment with SF-539 CNS, 16.8 µM; in the experiment on HT29 colon, 14.8 µM; in the experiment with NCI-H226 lung it was 17.6 µM; in the experiment with HCT-15 colon, 16.9 µM; in the experiment with NCI-H522 lung it was 16.6 µM. Moreover, the TGI in the experiment on MDA-N worked out at 15.7 µM; in the experiment on SK-MEL-5 melanoma, 15.2 µM; with SR leukemia, 20 µM.
Take `c1ccc(CSC2(SCc3ccccc3)CCCCC2)cc1`: the TGI in the experiment with SNB-19 CNS, in the experiment with SF-539 CNS, with HT29 colon, in the experiment with NCI-H226 lung, in the experiment on HCT-15 colon and in the experiment with NCI-H522 lung was above 10 µM each time. Also, the TGI in the experiment on MDA-N, in the experiment on SK-MEL-5 melanoma and in the experiment with SR leukemia was above 10 µM throughout.
`O=C(NNC(=O)c1csc(NC(=S)NC2CCCCC2)n1)c1ccccc1`: the TGI is 33.1 µM in the experiment on MDA-MB-435; 31.6 µM in the experiment with SF-539 CNS; 21.3 µM with HT29 colon; 49.5 µM in the experiment on NCI-H226 lung; 13 µM in the experiment with HCT-15 colon; 28.4 µM in the experiment with NCI-H522 lung. Moreover, the TGI with MDA-N is 31.1 µM; in the experiment on SK-MEL-5 melanoma, 19.7 µM; in the experiment on SR leukemia, above 100 µM.
On to `CCOC(=O)C(Cl)(NC(=O)OCc1ccccc1)C(F)(F)F` (stereo not given), for which the TGI in the experiment on SNB-19 CNS, in the experiment on MDA-MB-435, in the experiment on SF-539 CNS, in the experiment with HT29 colon, in the experiment on NCI-H226 lung and with HCT-15 colon was above 100 µM in each case. Also, the TGI in the experiment on NCI-H522 lung, with MDA-N and in the experiment with SK-MEL-5 melanoma was above 100 µM in each case.
With `COc1cccc(/C=C2\S/C(=N/Nc3nc(-c4ccc([N+](=O)[O-])cc4)cs3)NC2=O)c1O`, the TGI in the experiment on SNB-19 CNS turned out to be 52.9 µM; with MDA-MB-435 it was 42.2 µM; in the experiment with SF-539 CNS it was 22 µM; with HT29 colon, 52.6 µM; with NCI-H226 lung, 47.3 µM; with HCT-15 colon, 33.9 µM. The figures for the TGI in the experiment with MDA-N, with SK-MEL-5 melanoma and in the experiment with SR leukemia were 57.5 µM, 25.5 µM and 74.9 µM, respectively.
As for `COc1ccccc1C1c2cc3c(cc2OC(N2CCOCC2)C1C)OCO3` (stereo not given), the TGI in the experiment with SNB-19 CNS was 37.8 µM; with MDA-MB-435, 24.9 µM; in the experiment with SF-539 CNS, 32 µM; in the experiment on HT29 colon it was 40.9 µM; in the experiment on HCT-15 colon, 41.5 µM; with NCI-H522 lung, 30.1 µM. For the same molecule, the figures for the TGI in the experiment with MDA-N, with SK-MEL-5 melanoma and in the experiment with SR leukemia were 24.8 µM, 31.2 µM and 52.9 µM, respectively.
Regarding `CCOC1CC(C)N(C(=O)c2ccccc2)O1` (stereo not given), the TGI in the experiment with SNB-19 CNS, in the experiment with MDA-MB-435, with SF-539 CNS, in the experiment with HT29 colon, in the experiment on NCI-H226 lung and in the experiment on MDA-N was above 100 µM each time. Also, the TGI in the experiment on SK-MEL-5 melanoma and in the experiment with SR leukemia was above 100 µM each time.
Take `CSc1nc2c(c(=O)[nH]1)N=C(c1ccccc1)CC(c1ccccc1)N2` (stereo not given): the TGI in the experiment on SNB-19 CNS was above 100 µM; in the experiment with MDA-MB-435, above 100 µM; in the experiment with SF-539 CNS, 66.3 µM; with HT29 colon, above 100 µM; with NCI-H226 lung it was above 100 µM; with NCI-H522 lung it was 43.9 µM. Besides, the TGI in the experiment on MDA-N is 46.6 µM; in the experiment on SK-MEL-5 melanoma, 88.4 µM; with SR leukemia, above 100 µM.
Regarding `Cc1[nH]c(=O)nc(NNCc2ccc(Cl)cc2)c1C(=O)Nc1ccc(Cl)cc1`, the TGI in the experiment with SNB-19 CNS, in the experiment with MDA-MB-435, with SF-539 CNS, in the experiment on NCI-H226 lung, with HCT-15 colon and in the experiment on MDA-N was above 100 µM throughout. In addition, the TGI with SK-MEL-5 melanoma and with SR leukemia was above 100 µM in each case.
With `CCOC(=O)/C=C(/C)Nc1nc2c(c(C(=O)OC)c1C#N)CCCC2`, the TGI with SNB-19 CNS, in the experiment on MDA-MB-435, in the experiment on HT29 colon, with NCI-H226 lung, in the experiment with HCT-15 colon and in the experiment on NCI-H522 lung was above 100 µM in each case. Further, the TGI in the experiment with MDA-N, in the experiment on SK-MEL-5 melanoma and in the experiment on SR leukemia was above 100 µM in each case.
Take `CC1(C)N=C(C2CCCN2C(=O)OCc2ccccc2)OC1=O` (stereo not given): the TGI in the experiment on SNB-19 CNS, with MDA-MB-435, in the experiment with SF-539 CNS, in the experiment with HT29 colon, in the experiment on NCI-H226 lung and in the experiment on HCT-15 colon was above 100 µM throughout. The TGI in the experiment on NCI-H522 lung, in the experiment with MDA-N and in the experiment with SK-MEL-5 melanoma was above 100 µM throughout.

One may read the TGI as the concentration giving total growth inhibition. A lower TGI goes with greater sensitivity of the cells. For orientation: GI50 means the concentration giving 50% growth inhibition.
